For assay [1], the target named is T1, SARM1 SAM-TIR (Homo sapiens, UniProt Q6SZW1).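 Note: inhibition of SARM1 SAM-TIR NADase activity, i.e. NAD+ cleavage, using lysate of NRK1-HEK293T cells overexpressing the SAM-TIR fragment.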
T1 construct: a fragment of the SARM1 molecule encompassing the SAM and TIR domains; made in house; host or cells: NRK1-HEK293T cells, transiently transfected; the cleared, unpurified lysate was used as the enzyme
T1 sequence (Q6SZW1 409-724 limits assumed): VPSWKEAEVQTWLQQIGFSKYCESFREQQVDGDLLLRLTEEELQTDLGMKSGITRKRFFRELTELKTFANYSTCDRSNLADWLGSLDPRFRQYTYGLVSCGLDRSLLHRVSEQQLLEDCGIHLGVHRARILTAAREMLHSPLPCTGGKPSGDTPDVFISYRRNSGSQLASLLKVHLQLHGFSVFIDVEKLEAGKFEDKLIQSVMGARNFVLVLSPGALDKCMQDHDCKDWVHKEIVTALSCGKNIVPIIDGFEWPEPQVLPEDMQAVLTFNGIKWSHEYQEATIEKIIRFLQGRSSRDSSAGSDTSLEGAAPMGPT
Nature of the assay: biochemical. As to conditions: SAM-TIR lysate 5 μg/mL, 2 h pre-incubation, 5 μM NAD+, RapidFire MS of NAD+ and ADPR; read-out: SARM1 IC50.

Assay [2] relates to mouse dorsal root ganglion (DRG) drop culture. Nature of the assay: Axon degeneration assay in mouse DRG drop culture. The class given is cell-based. As to conditions: protection of axon fragmentation, axonal transection or chemotoxic stimuli. How it is done:
This Example illustrates an in vitro axon degeneration assay used to characterize compounds of Formula I or Formula II. This assay is used to test the efficacy of the compounds of Formula I or Formula II to prevent axonal degeneration in a mouse dorsal root ganglion (DRG) drop culture.
Mouse DRG Drop culture: Mouse dorsal root ganglion neurons (DRGs) were dissected out of E12.5 CD1 mice (50 ganglion per embryo) and incubated with 0.5% Trypsin solution containing 0.02% EDTA (Gibco) at 37° C. for 15 min. The cells were then triturated by gentle pipetting and washed 3 times with DRG growth medium (Neurobasal medium (Gibco) containing 2% B27 (Invitrogen), 100 ng/ml 2.5S NGF (Harland Bioproducts), […] 5-fluoro-2′deoxyuridine (Sigma), penicillin, and streptomycin). Cells were suspended in the DRG growth medium. DRG drop cultures were created by spotting 5000 cells/well into the center of each well of a 96-well tissue culture plate coated with poly-D-Lysine (0.1 mg/ml; Sigma) and laminin ([…]; Invitrogen). Cells were allowed to adhere to the plates in a humidified tissue culture incubator (5% CO2) for 15 min and then DRG growth medium was gently added ([…]).
Axon degeneration assay: Axonal degeneration was stimulated either by manual axonal transection using a scalpel blade, or chemotoxic stimuli. After an appropriate experimental time period, the DRG cultures were fixed in 1% PFA plus sucrose and kept in the fridge prior to imaging. Bright-field images of DRG axons and cell bodies were collected using the 20× water immersion lens of a Phenix automated confocal microscope (PerkinElmer) and quantitation of axonal performed using in-house developed scripts (Acapella, PerkinElmer).

Broadly, the IC50 is the midpoint of a concentration-inhibition curve.

Turning to `N#Cc1c(O)nsc1Nc1ccccc1C(F)(F)F` [Example 6], the results for the IC50 in assay [1] and in assay [2] were under 1 µM and 10 to 30 µM, respectively.
With `Cc1ccccc1Nc1snc(O)c1C#N` [Example 7], the IC50 lay within 1 to 5 µM in assay [1] and 10 to 30 µM in assay [2].
Take `N#Cc1c(O)nsc1Nc1cccc(C(F)(F)F)c1` [Example 12]: the IC50 was 1 to 5 µM in assay [1] and under 10 µM in assay [2].
As to `N#Cc1c(O)nsc1Nc1cccc2ncccc12` [Example 27], the IC50 is 1 to 5 µM in assay [1] and under 10 µM in assay [2].
The corresponding values for `Cn1sc(Nc2ccccc2C(F)(F)F)c(C#N)c1=O` [Example 31] are under 1 µM and 10 to 30 µM.
